The values that follow come from patent publication US7563467B2, “Use of an Opuntia ficus-indica extract and compounds isolated therefrom for protecting nerve cells” (Korea Institute of Science and Technology, priority 2001, dated 2009).

Molecules are shown by their SMILES. In brackets after ≈: the same amount, converted by molar mass. Entries after “also recorded” stand apart in the source; their conditions may differ. Marks after values point to notes of the source that are not given here.

Assay [1] deals with primary cultured rat cerebrocortical neurons. Briefly: Inhibition of xanthine/xanthine oxidase-induced neurotoxicity (LDH release). It counts as cell-based, Sprague-Dawley rat. Particulars: for IC50: Cerebrocortical neuron, isolated compounds, rat cerebrocortical neurons, LDH. How it is done: (§1) Namely, the cerebral cortices of Sprague-Dawley rat embryos at 16-18 days of gestation were isolated, and meninges […] removed therefrom using a dissecting microscope. The tissue thus obtained was separated into single cells by trituration using a Pasteur pipette in a medium (MEM, Gibco BRL) containing 25 mM glucose, 5% FBS, 5% horse serum and 2 mM L-glutamine. […] A portion of the culture solution was replaced with a fresh culture media twice per week, and cultures were treated with 10 μM cytosine arabinoside for 24 to 72 hours at day 7 to 9 after planting to inhibit the growth of non-neuronal cells. The cultured cells at day 10 to 14 after planting were used in experiments. […] Data were calculated as percentages of the control LDH activity in the culture medium exposed to the respective oxidative insult in the absence of test principles. The inhibitory activity of a test sample for the oxidative nerve cell damage was calculated from the amount of released LDH relative to that of an unchanged control.

For assay [2] the test system is unchanged. Briefly: Inhibition of hydrogen peroxide-induced neurotoxicity (LDH release). Particulars: for IC50: Cerebrocortical neuron. It counts as cell-based, Sprague-Dawley rat. How it is done:
as §1
In general terms: LDH in the medium is a marker of cell lysis.

Assay [3] relates to cultured rat cerebral hippocampus cells and cortex cells. As to the kind of experiment: Inhibition of NMDA-induced neurotoxicity (LDH release). It is filed as cell-based, SD rat. Particulars: for inhibition at 9 µg/mL / inhibition at 30 µg/mL: Rattus norvegicus, 100 μM NMDA; for inhibition at 9 µg/mL: 9 μg/Ml; for inhibition at 30 µg/mL: 30 μg/Ml. The protocol: The hippocampus and cortex were extracted from the cerebral tissue of 17-day old fetus of a pregnant SD rat using a microscope. The extracted hippocampus and cortex were each separated into discrete single cells using a pipette, and the cells obtained therefrom by centrifuging were inoculated into a 96-well plate coated with poly-L-lysine. […] After 72 hours incubation, the medium was replaced with the same medium but lacking glutamate, and the cells were further incubated. […] The cultured cells prepared in Reference Example 6 were treated with 100 μM NMDA (Sigma) for 2 hours to induce cerebral cell damage, with or without the presence of a fixed amount of a test sample. After 24 hours, the amount of LDH released into the culture solution was measured using an LDH measuring kit (Boehringer Mannheim).

The subject of assay [4] is rat model of transient focal cerebral ischemic damage. As to the kind of experiment: Transient focal cerebral ischemia (middle cerebral artery occlusion and reperfusion), TTC infarction volume and swelling. Particulars: one day after occlusion; for Corrected total infarction volume: corrected for swelling; for Corrected total infarction volume / Swelling ratio: rat MCAO, 10 mg/kg intraperitoneally; for Infarction volume, cerebral cortex / Infarction volume, corpus striatum / Infarction volume, total: rat MCAO 120 min and reperfusion, 10 mg/kg intraperitoneally about 30 min after ischemia. It is filed as in vivo, Sprague-Dawley rat.

The test system is the same in assay [5]. As to the kind of experiment: Neurological score after middle cerebral artery occlusion. Particulars: for Neurological score: 10 point means normal, average ± standard error.
Assay [6] in a line: DPPH radical scavenging activity (electron donating ability). Particulars: for DPPH radical scavenging activity (IC50): isolated compounds.
Assay [7] is described as follows: Superoxide anion radical scavenging activity (xanthine/xanthine oxidase, NBT). Particulars: for Superoxide anion radical scavenging activity (IC50): isolated compounds.
Protocol: Test sample solutions of various concentrations were each mixed with 0.1 mM xanthine, 0.1 mM EDTA, 50 μg/Ml bovine serum albumin (BSA), 25 mM nitroblue tetrazolium (NBT), 40 mM Na2CO3 and 7×10^−3 unit XOD to a final concentration of 200 μl and reacted at 25° C. for 20 min. 6.6 μl of 6 mM CuCl2 was added to the reaction mixture to stop the reaction, and the absorbance of the reaction mixture was measured at 560 nm to determine the amount of formazane.
The test system of assay [8] is cultured rat cerebral hippocampus cells and cortex cells. Briefly: Inhibition of growth factor withdrawal-induced neurotoxicity (LDH release). It counts as cell-based, SD rat. The protocol:
The hippocampus and cortex were extracted from the cerebral tissue of 17-day old fetus of a pregnant SD rat using a microscope. The extracted hippocampus and cortex were each separated into discrete single cells using a pipette, and the cells obtained therefrom by centrifuging were inoculated into a 96-well plate coated with poly-L-lysine. […] After 72 hours incubation, the medium was replaced with the same medium but lacking glutamate, and the cells were further incubated. […] The cultured cells prepared in Reference Example 6 were cultured in […] containing 2% B27 supplementary nutrient, and then, the culture solution was replaced with the same […] but lacking B27 supplementary nutrient to induce cell death caused by undernutrition. After 24 hours, the amount of LDH released by cell necrosis was measured using an LDH measuring kit (Boehringer Mannheim) to quantify the extent of cell death.

Setting [9] is: isolated compounds, rat cerebrocortical neurons, LDH.
[10] abbreviates: 30 min after occlusion of middle cerebral artery.
[11] abbreviates: 24 hour after occlusion of middle cerebral artery, 10 mg/kg intraperitoneally.

For orientation: IC50 means the point on the concentration scale where inhibition reaches its midpoint. Low values mean greater potency, high ones weaker potency. What is called inhibition is how much of the control response was suppressed. Higher therefore signals a strong effect. For the compound `O=C1c2c(O)cc(O)cc2O[C@H](c2ccc(O)c(O)c2)[C@H]1O` [Dihydroquercetin, dihydroquercetin], in assay [1], the “Inhibition of xanthine/xanthine oxidase-induced neurotoxicity (in words)” value is “strongly inhibit” and the IC50 stood at 16.6 µg/mL (≈ 54.6 µM). Also, the “Inhibition of hydrogen peroxide-induced neurotoxicity (in words)” value in assay [2] is “strongly inhibit”. In assay [2] (setting [9]), this compound yielded an IC50 of 7.8 µg/mL (≈ 25.6 µM). In addition, in assay [3], the “Inhibition of NMDA-induced neurotoxicity (in words)” value was “inhibit”, the inhibition at 9 µg/mL was found to be 33% and the inhibition at 30 µg/mL is 47%. For the same compound, in assay [4], the “Corrected total infarction volume” value was found to be 130.7 ± 13.1 mm^3; the “Infarction volume, cerebral cortex” value was determined as 169.4 ± 12.7 mm^3; the “Infarction volume, corpus striatum” value came to 30.1 ± 4.3 mm^3; the “Infarction volume, total” value is listed as 199.5 ± 16.5 mm^3. Moreover, the Swelling ratio in assay [4] worked out at 11.9 ± 0.5%. The compound also displayed a Neurological score in assay [5] (setting [10]) of 2.33 ± 0.16. In assay [5] (setting [11]), this compound registered a Neurological score of 3.00 ± 0.33. Also, in assay [6], the “DPPH radical scavenging activity (in words)” value is given as “potent” and the “DPPH radical scavenging activity (IC50)” value stood at 4.49 µg/mL. In assay [7], the “Superoxide anion radical scavenging activity (in words)” value is on record as “potent” and the “Superoxide anion radical scavenging activity (IC50)” value came out at 2.48 µg/mL.
On to `O=c1c(O)c(-c2ccc(O)c(O)c2)oc2cc(O)cc(O)c12` [Quercetin, quercetin], for which, in assay [1], the “Inhibition of xanthine/xanthine oxidase-induced neurotoxicity (in words)” value is recorded as “strongly inhibit” and the IC50 was 5.5 µg/mL (≈ 18.2 µM). In assay [2], the “Inhibition of hydrogen peroxide-induced neurotoxicity (in words)” value is listed as “strongly inhibit”. In assay [2] (setting [9]), this compound showed an IC50 of 4.1 µg/mL (≈ 13.6 µM). Also, in assay [4], the “Corrected total infarction volume” value was 110.6 ± 15.8 mm^3; the “Infarction volume, cerebral cortex” value was 130.5 ± 18.6 mm^3; the “Infarction volume, corpus striatum” value is listed as 30.1 ± 4.9 mm^3; the “Infarction volume, total” value turned out to be 161.1 ± 21.4 mm^3. Also, the Swelling ratio in assay [4] is 9.1 ± 1.1%. The Neurological score in assay [5] (setting [10]) was 2.44 ± 0.24. Also, the Neurological score in assay [5] (setting [11]) is on record as 4.56 ± 0.53. Also, in assay [6], the “DPPH radical scavenging activity (in words)” value is listed as “potent” and the “DPPH radical scavenging activity (IC50)” value amounted to 2.89 µg/mL. In addition, the “Superoxide anion radical scavenging activity (IC50)” value in assay [7] is over 50 µg/mL.
On to `COc1c(-c2ccc(O)cc2)oc2cc(O)cc(O)c2c1=O` [Kaempferol 3-methyl ether, kaempferol 3-methyl ether], for which the “Inhibition of hydrogen peroxide-induced neurotoxicity (IC50)” value in assay [2] (setting [9]) is over 300 µg/mL. Moreover, the “DPPH radical scavenging activity (IC50)” value in assay [6] was over 50 µg/mL. The “Superoxide anion radical scavenging activity (IC50)” value in assay [7] was over 50 µg/mL.
Take `COc1c(-c2ccc(O)c(O)c2)oc2cc(O)cc(O)c2c1=O` [Quercetin 3-methyl ether, quercetin 3-methyl ether]: in assay [1], the “Inhibition of xanthine/xanthine oxidase-induced neurotoxicity (in words)” value is given as “strongly inhibit; also recorded: highest inhibitory activity” and half-maximal inhibition (IC50) required 0.65 µg/mL (≈ 2.06 µM). Moreover, the “Inhibition of hydrogen peroxide-induced neurotoxicity (in words)” value in assay [2] was “strongly inhibit; also recorded: highest inhibitory activity”. In assay [2] (setting [9]), inhibition was half-maximal at 0.6 µg/mL (≈ 1.9 µM) (IC50). Moreover, in assay [3], the “Inhibition of NMDA-induced neurotoxicity (in words)” value is recorded as “inhibit”, testing at 9 µg/mL gave an inhibition of 21% and the inhibition at 30 µg/mL was determined as 54%. Moreover, the “Inhibition of growth factor withdrawal-induced neurotoxicity (in words)” value in assay [8] was “inhibited”. In assay [8] (Rattus norvegicus, 9 μg/Ml), the inhibition at 9 µg/mL was found to be 31%. For the same compound, the inhibition at 30 µg/mL in assay [8] (Rattus norvegicus, 30 μg/Ml) was 86%. Further, in assay [4], the “Corrected total infarction volume” value is given as 81.6 ± 17.8* mm^3; the “Infarction volume, cerebral cortex” value is 81.2 ± 20.8* mm^3; the “Infarction volume, corpus striatum” value is 28.9 ± 3.1 mm^3; the “Infarction volume, total” value is reported as 110.1 ± 22.9* mm^3. Further, the Swelling ratio in assay [4] was determined as 5.8 ± 0.7 %. Further, in assay [5], the “Neurological score compared with the control (in words)” value is “significantly higher”. Also, in assay [5] (setting [10]), the Neurological score came out at 2.36 ± 0.15. The compound also had a Neurological score in assay [5] (setting [11]) of 4.81 ± 0.44. Besides, in assay [6], the “DPPH radical scavenging activity (in words)” value is on record as “potent” and the “DPPH radical scavenging activity (IC50)” value is 3.76 µg/mL. In addition, in assay [7], the “Superoxide anion radical scavenging activity (in words)” value was “potent” and the “Superoxide anion radical scavenging activity (IC50)” value was found to be 4.77 µg/mL.
For the compound `O=C1c2c(O)cc(O)cc2O[C@H](c2ccc(O)cc2)[C@H]1O` [Dihydrokaempferol, dihydrokaempferol], the IC50 in assay [1] and in assay [2] (setting [9]) was over 300 µg/mL in each case. Besides, in assay [6], the “DPPH radical scavenging activity (IC50)” value was over 50 µg/mL. In addition, in assay [7], the “Superoxide anion radical scavenging activity (IC50)” value is over 50 µg/mL.
As for `O=c1c(O)c(-c2ccc(O)cc2)oc2cc(O)cc(O)c12` [Kaempferol, kaempferol], in assay [1], the “Inhibition of xanthine/xanthine oxidase-induced neurotoxicity (in words)” value was “strongly inhibit” and the midpoint of inhibition, the IC50, lay at 24.9 µg/mL (≈ 87 µM). Also, the “Inhibition of hydrogen peroxide-induced neurotoxicity (in words)” value in assay [2] is listed as “strongly inhibit”. Besides, the IC50 in assay [2] (setting [9]) amounted to 29.7 µg/mL (≈ 104 µM). Moreover, the “DPPH radical scavenging activity (IC50)” value in assay [6] was over 50 µg/mL. Further, the “Superoxide anion radical scavenging activity (IC50)” value in assay [7] was over 50 µg/mL.
